For data set [1], the system named is 3T3-L1 pre-adipocytes. Put plainly: Lipid accumulation in 3T3-L1 adipocytes (Oil red O, OD 490 nm). In kind it is cell-based. To be noted: 7 days in differentiation medium, compared to controls. The source says: The objective of the study was to evaluate if the compounds of the present invention, and more particularly analogs of 4-Hydroxyisoleucine, can decrease the accumulation of lipids in pre-adipocytes induced to differentiate into functional adipocytes. […] Treating the fibroblasts with a differentiation medium containing insulin, dexamethasone and […] (IBMX) in the presence of serum induces these cells to become terminally differentiated adipocytes. These cells convert to spherical shape and accumulate lipid droplets.
3T3-L1 were cultured in presence of DMEM and 10% FBS for a week in 6-well plates. The medium was than changed to induce differentiation of cells into mature adipocytes. The medium consisted of DMEM, 10% FBS, 0.5 mM IBMX, 0.01 mg/ml insulin and 0.1 μM dexamethasone, with or without compounds of the present invention. The cells were cultured for 7 days and then stained with Oil red 0, a dye which specifically stain lipids. The fat content of treated and untreated cells was quantified by measuring the optical density (OD, 490 nm) with a spectrophotometer.

Data set [2] has as its system C57BL/6 mice fed a high fat diet. Put plainly: Analogs and isomers of 4-hydroxyisoleucine on body weight gain in C57BL/6 mice fed a high fat diet, 3 days. Type of data set: in vivo. To be noted: for body weight gain induced by the high fat diet: 100 mg/kg twice daily oral gavage; for efficacy relative to compound 14a: 100 mg/kg twice daily. As for the experimental part:
C57BL/6 mice were received at 6-7 weeks of age and fed a standard commercial chow for 1 week (acclimation period). The animals were randomized based on their body weight values, into control and treatment groups (n=6). Then, animals were shifted to a high fat diet (60% of calories from fat) and treated twice daily by oral gavage with 4-hydroxyisoleucine (4-OH, compound 14a) or different analogs and isomers of 4-OH at the dose of 100 mg per kg of body weight for 3 days. The control group (Control HFD) received vehicle (water) alone and a group was kept under standard chow (Control Lean). Body weight of the mice was recorded daily. Two different experiments were run and the effect on body weight gain of selected analogs and isomers according to the invention is presented in FIG. 30A (Experiment 1) and FIG. 30B (Experiment 2).

Data set [3] has as its system Diet-Induced Obesity (DIO) mouse model. Put plainly: Compound 13e on body weight gain in the Diet-Induced Obesity (DIO) mouse model, 21 days. In kind it is in vivo, C57BL/6 mice. As for the experimental part:
The objective of this study was to determine the effect of one analog according to the invention, namely Compound 13e, on body weight gain in the Diet-Induced Obesity (DIO) mouse model.
C57BL/6 mice were received at 7-8 weeks of age and fed a high fat diet (60% of calories from fat) for 8 weeks. Fasted glycemia and body weight values were used to randomize the mice into control and treatment groups (n=8). The average basal glycemia was between 213 and 215 mg/dL for all groups. The animals were treated twice daily by oral gavage with Compound 13e (25 or 50 mg per kg of body weight), and the control group received vehicle (200 mM bicarbonate buffer/0.1% Tween-20™, pH=9) alone. The animals were treated for 21 days. Body weight of the mice was measured on a frequent basis during the treatment. At the end of the study, the epididymal fat pads were isolated and weighed. Data are expressed as mean±SEM of body weight and mean±SEM of fat pad weight.

Data set [4] deals with DIO-mice. The source says:
The objective of this study was to evaluate the effect of chronic administration of 4-hydroxyisoleucine (4-OH, compound 14a) and Rosiglitazone, administered alone or in combination, on food consumption and body weight gain of DIO-mice. Both parameters were monitored for 1 week prior to the commencement of treatment, then for the 28 days of treatment and for an additional 7 days post-treatment.
A total of 72 animals were used in the study. The animals were distributed into 6 groups (5 treated, 1 control group, all on high fat diet). Each group was composed of 12 animals. The mice were randomized according to body weight and basal glycemia values following a 5±0.5 hour fasting period.
For the four weeks of treatment, the test articles were dissolved in reverse osmosis water. 4-Hydroxyisoleucine was aliquoted and kept at 4° C. (administration to groups 2, 3, and 6), while Rosiglitazone was freshly prepared daily and kept at 4° C. between the AM and PM administration to groups 4, 5, and 6. Control animals received reverse osmosis water twice daily (group 1). Mice from groups 2 and 3 were treated twice daily with 4-OH at 50 and 100 mg/kg, respectively. Animals from groups 4 and 5 received 1.5 and 5 mg/kg of Rosiglitazone, respectively. […] All groups were treated by oral gavage. Treatment commenced on Day 0 and ended on Day 28 (FIGS. 18A and 18C.
Food consumption was measured and averaged on a weekly basis beginning one week before the start of treatment as shown in FIGS. 18B and 18D as week −1. Similarly, food consumption was monitored for one week after treatment was stopped and is shown as week 5 in FIGS. 18B and 18D, In FIG. 18B, the food consumption over time for various treatment groups is illustrated by the bar graph.

In data set [5] the test system is obese mice. Put plainly: Compound 22 and 4-hydroxyisoleucine on weight gain of obese mice, 21 days. Type of data set: in vivo, C57BL/6 mice. As for the experimental part:
The objective of the following study was to evaluate the effect of the lactone form of 4-hydroxyisoleucine (compound 22) on the weight gain of obese mice. 40 C57BL/6 mice were fed a high fat diet (60% of calories from fat) for 6 weeks in order to induce obesity. Animals were than randomized to 5 study groups of 8 mice each according to their body weight values. Thereafter, the animals were treated orally twice daily with either the water vehicle, 50 mg/kg of compound 22, 100 mg/kg of compound 22, 50 mg/kg of 4-hydroxyisoleucine or 100 mg/kg of 4-hydroxyisoleucine. The treatment lasted 21 days and body weight of mice were determined daily from day 1 to day 21 of the study.

For data set [6], the system named is Diet Induced Obesity (DIO)-Mice. In kind it is in vivo. On the procedure: A total of 40 animals were used in the study. The animals were distributed into 5 groups (4 treated, 1 control group, all on high fat diet). Each group was composed of 8 animals.
4-OH was aliquoted and kept at 4° C. […] Mice from groups 4 and 5 were treated twice daily with 50 and 100 mg/kg of compound 65a. All groups were treated by oral gavage. Treatment commenced on Day 0 and ended on Day 7 (FIG. 37A). Body weights were measured daily.

Experimental findings from US20100048545A1, “Compounds and Compositions for Use in the Prevention and Treatment of Disorders of Fat Metabolism and Obesity” (INNODIA INC., priority 2006, published 2010) are described below.

Entries after “also recorded” stand apart in the source; their conditions may differ. Where a name gives a salt, the structure may show the parent alone.

`COC(=O)[C@@H]1C[C@H](O)CN1` [Compound 76, cis-4-hydroxyproline methyl ester HCl salt]: in data set [1] (HCl salt), the lipid accumulation entry was “dose-dependently decreased the lipid accumulation; also recorded: decrease of accumulation of lipids”. The “body weight gain induced by the high fat diet” value (“body weight gain induced” below) in data set [2] is “reduced body weight gain induced by the high fat diet”.
`N[C@H](C(=O)O)[C@@H]1CCCC[C@H]1O` [Compound 13e, (S)-2-amino-2-((1S,2R)-2-hydroxycyclohexyl)acetic acid]: the “epididymal fat pad weight” value in data set [3] (25 or 50 mg/kg twice daily) was “reduction of epididymal fat pad weight”. The “body weight gain (delta of body weight from Day 0)” value in data set [3] (25 or 50 mg/kg twice daily oral gavage) is “reduction of body weight; also recorded: reduction in body weight gain compared to vehicle treated mice and this effect was dose-dependent”.
`CC(C)(C)C(O)CC(N)C(=O)O` (stereo not shown) [Compound 62, 2-amino-4-hydroxy-5,5-dimethyl-hexanoic acid]: the lipid accumulation result in data set [1] is “dose-dependently decreased the lipid accumulation; also recorded: decrease of accumulation of lipids”. In data set [2], the “efficacy relative to compound 14a” value was “greater efficacy than the SRS isomer of 4-OH” and the “body weight gain induced” value is “reduced body weight gain induced by the high fat diet”.
For the molecule `CN(CCOc1ccc(CC2SC(=O)NC2=O)cc1)c1ccccn1` (stereo not shown) [Rosiglitazone, reference compound], the food consumption result in data set [4] (Rosiglitazone 1.5 mg/kg alone) is given as “increase in food consumption”. Further, the weight result in data set [4] (Rosiglitazone alone, relative to the other groups) is “significant increase in weight relative to the other groups”.
Turning to `C[C@H]([C@@H](C)O)[C@@H](N)C(=O)O` [Compound 14aa, (2R,3S,4R)-4-Hydroxyisoleucine], the “body weight gain induced” value in data set [2] is recorded as “reduced body weight gain induced by the high fat diet”.
As for `CC1C(O)CN[C@@H]1C(=O)O` (stereo partly shown) [Compound 22], the body weight entry in data set [5] (100 mg/kg orally twice daily, 21 days, vs water control, p<0.01) is recorded as “significant reduction of body weight compared to the water control group”. For the same molecule, the “white fat mass (epididymal fat)” value in data set [5] (100 mg/kg, end of treatment, p<0.01) was “loss of the white fat mass (epididymal fat)”. Moreover, the “weight loss relative to 4-hydroxyisoleucine” value in data set [5] (same dose level of 100 mg/kg, p<0.05) is given as “significantly greater than the weight loss caused by 4-hydroxyisoleucine”.
Take `CC(=O)N[C@@H]1C(=O)O[C@@H](C)[C@@H]1C` [Compound 104]: the “body weight gain induced” value in data set [2] is on record as “reduced body weight gain induced by the high fat diet”.
On to `O=C(O)[C@@H]1C[C@H](O)CN1` [Compound 75, cis-4-hydroxyproline], for which the lipid accumulation entry in data set [1] was “dose-dependently decreased the lipid accumulation; also recorded: decrease of accumulation of lipids”. The “body weight gain induced” value in data set [2] is given as “reduced body weight gain induced by the high fat diet”.
As for `COC(=O)[C@H]1C[C@@H](O)CN1` [Compound 202], the “body weight gain induced” value in data set [2] is reported as “reduced body weight gain induced by the high fat diet”.
Take `CC1(O)CC(C(=O)O)NCC1O` (stereo not shown) [Compound 65a, 4-methyl-4,5-dihydroxypipecolic acid]: the tolerability of treatment entry in data set [6] (50 and 100 mg/kg twice daily oral gavage, one week) is “well tolerated”. In addition, the weight gain entry in data set [6] (50 and 100 mg/kg twice daily, first week of treatment) is recorded as “moderation of weight gain was observed”. Moreover, in data set [6] (first week of treatment), the food consumption entry is on record as “slight decrease in food consumption”. In data set [2], the “efficacy relative to compound 14a” value was “greater efficacy than the SRS isomer of 4-OH” and the “body weight gain induced” value was “reduced body weight gain induced by the high fat diet”.
